Results on eleven compounds are retold here after patent EP3755703B1, “N-(PHENYL)-2-(PHENYL)PYRIMIDINE-4-CARBOXAMIDE DERIVATIVES AND RELATED COMPOUNDS AS HPK1 INHIBITORS FOR TREATING CANCER” (Incyte Corporation, priority 2018, dated 2019).

Where only a bound is given, the exact number is not on record here.

This experiment concerns the target T1, HPK1 (Homo sapiens, UniProt Q92918).
T1 construct: purchased SignalChem M23-11G
T1 sequence (Q92918 1-346 limits assumed): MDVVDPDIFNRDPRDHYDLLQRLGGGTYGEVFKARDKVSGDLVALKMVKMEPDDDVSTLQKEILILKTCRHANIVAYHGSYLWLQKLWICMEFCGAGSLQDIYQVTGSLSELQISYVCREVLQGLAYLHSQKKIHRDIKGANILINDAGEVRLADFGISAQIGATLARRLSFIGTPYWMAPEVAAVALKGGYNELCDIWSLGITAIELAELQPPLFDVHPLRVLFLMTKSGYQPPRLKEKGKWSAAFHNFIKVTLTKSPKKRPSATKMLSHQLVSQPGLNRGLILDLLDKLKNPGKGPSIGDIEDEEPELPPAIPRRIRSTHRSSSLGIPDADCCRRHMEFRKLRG
Nature of the experiment: HPK1 Kinase Binding Assay. Particulars: LanthaScreen tracer 222, one hour incubation at 25 °C. As to the method:
A stock solution of 1 mM test compound was prepared in DMSO. The compound plate was prepared by 3-fold and 11-point serial dilutions. 0.1 µL of the compound in DMSO was transferred from the compound plate to the white 384 well polystyrene plates. The assay buffer contained 50 mM HEPES, pH 7.5, 0.01% Tween-20, 5 mM MgCl2, 0.01% BSA, and 5 mM DTT. 5 µL of 4 nM active HPK1 (SignalChem M23-11G) prepared in the buffer was added to the plate. The enzyme concentration given was based on the given stock concentration reported by the vender. […] After one hour incubation at 25 °C, the plates were read on a PHERAstar FS plate reader (BMG Labtech). Ki values were determined.
For orientation: TR-FRET usually uses a lanthanide donor and a delayed reading to cut background.
As a reminder, the Ki is the dissociation constant of the complex between target and ligand, obtained from inhibition or displacement. A lower Ki goes with a stronger hold on the target. As to `COc1ccc(F)c(F)c1-c1nccc(C(=O)Nc2cc(F)ccc2N2C[C@@H](N)C[C@H]2CO)n1` [Example 68, N-(2-((2S,4S)-4-Amino-2-(hydroxymethyl)pyrrolidin-1-yl)-5-fluorophenyl)-2-(2,3-difluoro-6-methoxyphenyl)pyrimidine-4-carboxamide], the Ki was under 100 nM.

`[2H]C([2H])([2H])Oc1ccc(C)c(F)c1-c1nccc(C(=O)Nc2cc(F)ccc2N2C[C@@H](N)C[C@H]2CO)n1` [Example 69, N-(2-((2S,4S)-4-Amino-2-(hydroxymethyl)pyrrolidin-1-yl)-5-fluorophenyl)-2-(2-fluoro-6-(methoxy-d3)-3-methylphenyl)pyrimidine-4-carboxamide] returned a Ki of under 100 nM.

As for `COc1cc(C)cc(F)c1-c1nccc(C(=O)Nc2ccc(-c3cnccc3C#N)cc2N2C[C@@H](N)C[C@H]2CO)n1` [Example 70, N-(2-((2S,4S)-4-Amino-2-(hydroxymethyl)pyrrolidin-1-yl)-4-(4-cyanopyridin-3-yl)phenyl)-2-(2-fluoro-6-methoxy-4-methylphenyl)pyrimidine-4-carboxamide], the Ki was under 100 nM.

Compound `Cc1c(F)ccc(F)c1-c1nccc(C(=O)Nc2ccc(-c3cnccc3C#N)cc2N2C[C@@H](N)C[C@H]2CO)n1` [Example 71, N-(2-((2S,4S)-4-Amino-2-(hydroxymethyl)pyrrolidin-1-yl)-4-(4-cyanopyridin-3-yl)phenyl)-2-(3,6-difluoro-2-methylphenyl)pyrimidine-4-carboxamide] showed a Ki of under 100 nM.

The compound `COc1ccc(F)c(F)c1-c1nccc(C(=O)Nc2ccc(-c3cnccc3C#N)cc2N2C[C@@H](N)C[C@H]2CO)n1` [Example 72, N-(2-((2S,4S)-4-Amino-2-(hydroxymethyl)pyrrolidin-1-yl)-4-(4-cyanopyridin-3-yl)phenyl)-2-(2,3-difluoro-6-methoxyphenyl)pyrimidine-4-carboxamide] gave a Ki of under 100 nM.

`COc1c(F)ccc(F)c1-c1nccc(C(=O)Nc2ccc(-c3cnccc3C#N)cc2N2C[C@@H](N)C[C@H]2CO)n1` [Example 73, N-(2-((2S,4S)-4-Amino-2-(hydroxymethyl)pyrrolidin-1-yl)-4-(4-cyanopyridin-3-yl)phenyl)-2-(3,6-difluoro-2-methoxyphenyl)pyrimidine-4-carboxamide]: the Ki is under 100 nM.

In turn, `[2H]C([2H])([2H])Oc1ccc(C#N)c(F)c1-c1nccc(C(=O)Nc2ccc(-c3cnccc3C#N)cc2N2C[C@@H](N)C[C@H]2CO)n1` [Example 74, N-(2-((2S,4S)-4-Amino-2-(hydroxymethyl)pyrrolidin-1-yl)-4-(4-cyanopyridin-3-yl)phenyl)-2-(3-cyano-2-fluoro-6-(methoxy-d3)phenyl)pyrimidine-4-carboxamide] registered a Ki of under 100 nM.

In turn, `[2H]C([2H])([2H])Oc1c(F)ccc(F)c1-c1nccc(C(=O)Nc2ccc(-c3cnccc3C#N)cc2N2C[C@@H](N)C[C@H]2CO)n1` [Example 75, N-(2-((2S,4S)-4-Amino-2-(hydroxymethyl)pyrrolidin-1-yl)-4-(4-cyanopyridin-3-yl)phenyl)-2-(3,6-difluoro-2-(methoxy-d3)phenyl)pyrimidine-4-carboxamide] returned a Ki of under 100 nM.

With `[2H]C([2H])([2H])Oc1ccc(F)c(F)c1-c1nccc(C(=O)Nc2ccc(-c3cnccc3C#N)cc2N2C[C@@H](N)C[C@H]2CO)n1` [Example 76, N-(2-((2S,4S)-4-Amino-2-(hydroxymethyl)pyrrolidin-1-yl)-4-(4-cyanopyridin-3-yl)phenyl)-2-(2,3-difluoro-6-(methoxy-d3)phenyl)pyrimidine-4-carboxamide], the Ki was under 100 nM.

The compound `COc1cccc(F)c1-c1nccc(C(=O)Nc2ccccc2C2CCNCC2)n1` [Example 78, 2-(2-Fluoro-6-methoxyphenyl)-N-(2-(piperidin-4-yl)phenyl)pyrimidine-4-carboxamide] gave a Ki of 100 to 500 nM.

In turn, `COc1cccc(F)c1-c1nccc(C(=O)Nc2ccccc2C2CCCC(N)C2)n1` (centres unmarked) [Example 80, N-(2-(3-Aminocyclohexyl)phenyl)-2-(2-fluoro-6-methoxyphenyl)pyrimidine-4-carboxamide] came in with a Ki of under 100 nM.
